Reference: PubChem BioAssay AID2060507 (Molecular Pharmacology Branch, DTP, NCI, 2025)

Test system: 519858-162-T-J1-PDC complex spheroid viability
Assay: Anticancer human tumor 519858-162-T-J1-PDC patient-derived colon adenocarcinoma cell line growth inhibition [GQUAD]
Settings: for IC50: curve of first compound; for viability, T/C: stronger effect = lower value
Summary of the method: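 Tumor cells were grown as complex spheroids with HUVEC endothelial cells and mesenchymal stem cells as stroma. G-quadruplex stabilizers were combined with targeted agents over half-log dilutions from near the clinical Cmax, or from 10 microM.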

[1] = second compound 0.0316 µM, first compound 0.0316 µM
[2] = second compound 0.0316 µM, first compound 0.1 µM
[3] = second compound 0.0316 µM, first compound 0.316 µM
[4] = second compound 0.0316 µM, first compound 1 µM
[5] = second compound 0.0316 µM, first compound 3.16 µM
[6] = second compound 0.0316 µM, first compound 10 µM
[7] = second compound 0.1 µM, first compound 0.0316 µM
[8] = second compound 0.1 µM, first compound 0.1 µM
[9] = second compound 0.1 µM, first compound 0.316 µM
[10] = second compound 0.1 µM, first compound 1 µM
[11] = second compound 0.1 µM, first compound 3.16 µM
[12] = second compound 0.1 µM, first compound 10 µM
[13] = second compound 0.316 µM, first compound 0.0316 µM
[14] = second compound 0.316 µM, first compound 0.1 µM
[15] = second compound 0.316 µM, first compound 0.316 µM
[16] = second compound 0.316 µM, first compound 1 µM
[17] = second compound 0.316 µM, first compound 3.16 µM
[18] = second compound 0.316 µM, first compound 10 µM
[19] = second compound 1 µM, first compound 0.0316 µM
[20] = second compound 1 µM, first compound 0.1 µM
[21] = second compound 1 µM, first compound 0.316 µM
[22] = second compound 1 µM, first compound 1 µM
[23] = second compound 1 µM, first compound 3.16 µM
[24] = second compound 1 µM, first compound 10 µM
[25] = second compound 3.16 µM, first compound 0.0316 µM
[26] = second compound 3.16 µM, first compound 0.1 µM
[27] = second compound 3.16 µM, first compound 0.316 µM
[28] = second compound 3.16 µM, first compound 1 µM
[29] = second compound 3.16 µM, first compound 3.16 µM
[30] = second compound 3.16 µM, first compound 10 µM
[31] = second compound 10 µM, first compound 0.0316 µM
[32] = second compound 10 µM, first compound 0.1 µM
[33] = second compound 10 µM, first compound 0.316 µM
[34] = second compound 10 µM, first compound 1 µM
[35] = second compound 10 µM, first compound 3.16 µM
[36] = second compound 10 µM, first compound 10 µM
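Further: spheroids exposed to compounds for 7 days.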
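Wherever viability, T/C is given: 100% = DMSO vehicle control viability.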

Cc1cccc(N(C)C(=O)C2C(O)CCN2c2nc(C)cc(C(F)(F)F)c2C#N)c1 (stereo not drawn) + CN(C)c1ccc(Nc2c3ccc(NC(=O)CCN4CCCC4)cc3nc3cc(NC(=O)CCN4CCCC4)ccc23)cc1
IC50 (second compound 0.0316 µM): > 10 µM | IC50 (second compound 0.1 µM): > 10 µM | IC50 (second compound 0.316 µM): > 10 µM | IC50 (second compound 1 µM): > 10 µM | IC50 (second compound 3.16 µM): > 10 µM | IC50 (second compound 10 µM): > 10 µM | viability, T/C [1]: 86.1% | viability, T/C [2]: 126% | viability, T/C [3]: 96.4% | viability, T/C [4]: 95.2% | viability, T/C [5]: 91.1% | viability, T/C [6]: 92.9% | viability, T/C [7]: 105% | viability, T/C [8]: 78.6% | viability, T/C [9]: 109% | viability, T/C [10]: 77.2% | viability, T/C [11]: 68.1% | viability, T/C [12]: 83.8% | viability, T/C [13]: 111% | viability, T/C [14]: 87.7% | viability, T/C [15]: 120% | viability, T/C [16]: 61.4% | viability, T/C [17]: 75% | viability, T/C [18]: 85.5% | viability, T/C [19]: 102% | viability, T/C [20]: 84.6% | viability, T/C [21]: 109% | viability, T/C [22]: 73.1% | viability, T/C [23]: 88.8% | viability, T/C [24]: 73.3% | viability, T/C [25]: 63.9% | viability, T/C [26]: 76.2% | viability, T/C [27]: 103% | viability, T/C [28]: 91.8% | viability, T/C [29]: 78.5% | viability, T/C [30]: 62.3% | viability, T/C [31]: 71.2% | viability, T/C [32]: 78.8% | viability, T/C [33]: 57.9% | viability, T/C [34]: 90.7% | viability, T/C [35]: 65.2% | viability, T/C [36]: 88.3%

CC(C)(O)C1CCC(Nc2ccc3ncc(-c4cccc(C(F)(F)F)c4)n3n2)CC1 (stereo not drawn) + Cc1[nH]c2ccc(F)cc2c1-c1nc2c3cccnc3c3ncccc3c2[nH]1
IC50 (second compound 0.0316 µM): 2.37 µM | IC50 (second compound 0.1 µM): 2.2 µM | IC50 (second compound 0.316 µM): 1.97 µM | IC50 (second compound 1 µM): 1.81 µM | IC50 (second compound 3.16 µM): 1.75 µM | IC50 (second compound 10 µM): 1.65 µM | viability, T/C [1]: 87.7% | viability, T/C [2]: 99.6% | viability, T/C [3]: 104% | viability, T/C [4]: 98.5% | viability, T/C [5]: 16.1% | viability, T/C [6]: 52.3% | viability, T/C [7]: 101% | viability, T/C [8]: 82.5% | viability, T/C [9]: 97.5% | viability, T/C [10]: 120% | viability, T/C [11]: 26.7% | viability, T/C [12]: 26.9% | viability, T/C [13]: 68.2% | viability, T/C [14]: 84.2% | viability, T/C [15]: 89.3% | viability, T/C [16]: 131% | viability, T/C [17]: 14.9% | viability, T/C [18]: 24.8% | viability, T/C [19]: 88% | viability, T/C [20]: 89.3% | viability, T/C [21]: 99.9% | viability, T/C [22]: 100% | viability, T/C [23]: 7.25% | viability, T/C [24]: 9.88% | viability, T/C [25]: 97.7% | viability, T/C [26]: 84% | viability, T/C [27]: 71.5% | viability, T/C [28]: 122% | viability, T/C [29]: 2.95% | viability, T/C [30]: 4.04% | viability, T/C [31]: 87.5% | viability, T/C [32]: 63% | viability, T/C [33]: 80.3% | viability, T/C [34]: 102% | viability, T/C [35]: 6.15% | viability, T/C [36]: 7.1%

Nc1ccn(C2OC(CO)C(O)C2(F)F)c(=O)n1 (stereo not drawn) + Cc1[nH]c2ccc(F)cc2c1-c1nc2c3cccnc3c3ncccc3c2[nH]1
IC50 (second compound 0.0316 µM): > 10 µM | IC50 (second compound 0.1 µM): > 10 µM | IC50 (second compound 0.316 µM): > 10 µM | IC50 (second compound 1 µM): > 10 µM | IC50 (second compound 3.16 µM): > 10 µM | IC50 (second compound 10 µM): > 10 µM | viability, T/C [1]: 131% | viability, T/C [2]: 69.3% | viability, T/C [3]: 89.4% | viability, T/C [4]: 80.1% | viability, T/C [5]: 83% | viability, T/C [6]: 72.3% | viability, T/C [7]: 85.9% | viability, T/C [8]: 143% | viability, T/C [9]: 70.5% | viability, T/C [10]: 71% | viability, T/C [11]: 82.9% | viability, T/C [12]: 102% | viability, T/C [13]: 93.3% | viability, T/C [14]: 116% | viability, T/C [15]: 78.5% | viability, T/C [16]: 57.9% | viability, T/C [17]: 70% | viability, T/C [18]: 69.8% | viability, T/C [19]: 90.7% | viability, T/C [20]: 81.9% | viability, T/C [21]: 89.5% | viability, T/C [22]: 76.9% | viability, T/C [23]: 84.2% | viability, T/C [24]: 73.7% | viability, T/C [25]: 54.4% | viability, T/C [26]: 76.8% | viability, T/C [27]: 61.9% | viability, T/C [28]: 47.2% | viability, T/C [29]: 95.4% | viability, T/C [30]: 60.5% | viability, T/C [31]: 82.4% | viability, T/C [32]: 73.5% | viability, T/C [33]: 73% | viability, T/C [34]: 68.9% | viability, T/C [35]: 108% | viability, T/C [36]: 54.2%

O=C(NO)c1cnc(N2CCN(S(=O)(=O)c3ccc4ccccc4c3)CC2)nc1 + Cc1[nH]c2ccc(F)cc2c1-c1nc2c3cccnc3c3ncccc3c2[nH]1
IC50 (second compound 0.0316 µM): 0.353 µM | IC50 (second compound 0.1 µM): 0.242 µM | IC50 (second compound 0.316 µM): 0.311 µM | IC50 (second compound 1 µM): 0.251 µM | IC50 (second compound 3.16 µM): 0.204 µM | IC50 (second compound 10 µM): 0.195 µM | viability, T/C [1]: 82.3% | viability, T/C [2]: 82.8% | viability, T/C [3]: 53.8% | viability, T/C [4]: 10% | viability, T/C [5]: 0.42% | viability, T/C [6]: 0.52% | viability, T/C [7]: 102% | viability, T/C [8]: 102% | viability, T/C [9]: 34.3% | viability, T/C [10]: 8.48% | viability, T/C [11]: 0.31% | viability, T/C [12]: 0.42% | viability, T/C [13]: 85.4% | viability, T/C [14]: 95.8% | viability, T/C [15]: 48.9% | viability, T/C [16]: 8.61% | viability, T/C [17]: 0.35% | viability, T/C [18]: 1.29% | viability, T/C [19]: 75.9% | viability, T/C [20]: 77.4% | viability, T/C [21]: 43% | viability, T/C [22]: 7.91% | viability, T/C [23]: 0.49% | viability, T/C [24]: 1.27% | viability, T/C [25]: 83% | viability, T/C [26]: 87.8% | viability, T/C [27]: 28.2% | viability, T/C [28]: 5.99% | viability, T/C [29]: 1.44% | viability, T/C [30]: 0.36% | viability, T/C [31]: 64.7% | viability, T/C [32]: 69.7% | viability, T/C [33]: 36.7% | viability, T/C [34]: 13.9% | viability, T/C [35]: 0.79% | viability, T/C [36]: 0.64%
